# From PubChem BioAssay (NCI)
#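 Following 48 hours of exposure in 96-well plates, responses at five concentrations were used to interpolate endpoints linearly. GI50 = concentration required for 50% inhibition of growth. TGI denotes the concentration required for complete inhibition of growth.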
# Tests used:
# Test in all cases: NCI tumour cell line growth inhibition, 48 h
# MDA-MB-231 breast = test system: MDA-MB-231 breast
# NCI/ADR-RES ovarian = test system: NCI/ADR-RES ovarian
# BT-549 breast = test system: BT-549 breast
# COLO 205 colon = test system: COLO 205 colon
# OVCAR-3 ovarian = test system: OVCAR-3 ovarian
# HT29 colon = test system: HT29 colon
# NCI-H522 lung = test system: NCI-H522 lung
# T-47D breast = test system: T-47D breast
# SNB-19 CNS = test system: SNB-19 CNS
# MCF7 breast = test system: MCF7 breast
# HOP-62 NSCLC = test system: HOP-62 NSCLC
# HCC-2998 colon = test system: HCC-2998 colon
# SW-620 colon = test system: SW-620 colon
# K-562 leukemia = test system: K-562 leukemia
# RXF 393 renal = test system: RXF 393 renal
# OVCAR-4 ovarian = test system: OVCAR-4 ovarian
# U251 CNS = test system: U251 CNS
# OVCAR-8 ovarian = test system: OVCAR-8 ovarian
# A498 renal = test system: A498 renal
# SK-MEL-28 melanoma = test system: SK-MEL-28 melanoma
# DU-145 prostate = test system: DU-145 prostate
# UACC-62 melanoma = test system: UACC-62 melanoma
# SK-OV-3 ovarian = test system: SK-OV-3 ovarian
# SNB-75 CNS = test system: SNB-75 CNS
# CCRF-CEM leukemia = test system: CCRF-CEM leukemia
# HS 578T breast = test system: HS 578T breast
# SN12C renal = test system: SN12C renal
# MALME-3M melanoma = test system: MALME-3M melanoma
# HCT-116 colon = test system: HCT-116 colon
# HCT-15 colon = test system: HCT-15 colon
# SF-539 CNS = test system: SF-539 CNS
# CAKI-1 renal = test system: CAKI-1 renal
# EKVX NSCLC = test system: EKVX NSCLC
# NCI-H23 lung = test system: NCI-H23 lung
# NCI-H460 lung = test system: NCI-H460 lung
# HL-60(TB) leukemia = test system: HL-60(TB) leukemia
# OVCAR-5 ovarian = test system: OVCAR-5 ovarian
# UO-31 renal = test system: UO-31 renal
# ACHN renal = test system: ACHN renal
# SK-MEL-2 melanoma = test system: SK-MEL-2 melanoma
# PC-3 prostate = test system: PC-3 prostate
# SF-268 CNS = test system: SF-268 CNS
# SR leukemia = test system: SR leukemia
# MOLT-4 leukemia = test system: MOLT-4 leukemia
# UACC-257 melanoma = test system: UACC-257 melanoma
# TK-10 renal = test system: TK-10 renal
# MDA-MB-435 = test system: MDA-MB-435
# KM12 colon = test system: KM12 colon
# A549 NSCLC = test system: A549 NSCLC
# M14 melanoma = test system: M14 melanoma
# NCI-H226 lung = test system: NCI-H226 lung
# SF-295 CNS = test system: SF-295 CNS
# HOP-92 NSCLC = test system: HOP-92 NSCLC
# IGROV1 ovarian = test system: IGROV1 ovarian
# SK-MEL-5 melanoma = test system: SK-MEL-5 melanoma
# 786-0 renal = test system: 786-0 renal
# LOX IMVI melanoma = test system: LOX IMVI melanoma
# RPMI-8226 leukemia = test system: RPMI-8226 leukemia
compound,measurement,setting,value
Cc1cc(/C=C\c2ccc3ccccc3[n+]2C)c(O)c2ncccc12,GI50,MDA-MB-231 breast,0.259 µM
same,TGI,MDA-MB-231 breast,1.9 µM
same,GI50,NCI/ADR-RES ovarian,1.1 µM
same,TGI,NCI/ADR-RES ovarian,13.6 µM
same,GI50,BT-549 breast,0.26 µM
same,TGI,BT-549 breast,4.63 µM
same,GI50,COLO 205 colon,0.448 µM
same,TGI,COLO 205 colon,4.58 µM
same,GI50,OVCAR-3 ovarian,0.176 µM
same,TGI,OVCAR-3 ovarian,0.569 µM
same,GI50,HT29 colon,0.218 µM
same,TGI,HT29 colon,21.7 µM
same,GI50,NCI-H522 lung,1.05 µM
same,TGI,NCI-H522 lung,5.02 µM
same,GI50,T-47D breast,0.835 µM
same,TGI,T-47D breast,5.68 µM
same,GI50,SNB-19 CNS,0.494 µM
same,TGI,SNB-19 CNS,27.4 µM
same,GI50,MCF7 breast,0.283 µM
same,GI50,HOP-62 NSCLC,0.497 µM
same,TGI,HOP-62 NSCLC,8.03 µM
same,GI50,HCC-2998 colon,0.112 µM
same,TGI,HCC-2998 colon,0.593 µM
same,GI50,SW-620 colon,0.196 µM
same,TGI,SW-620 colon,2.15 µM
same,GI50,K-562 leukemia,0.169 µM
same,TGI,K-562 leukemia,> 100 µM
same,GI50,RXF 393 renal,1.55 µM
same,TGI,RXF 393 renal,6.03 µM
same,GI50,OVCAR-4 ovarian,0.323 µM
same,TGI,OVCAR-4 ovarian,1.73 µM
same,GI50,U251 CNS,0.537 µM
same,TGI,U251 CNS,> 100 µM
same,GI50,OVCAR-8 ovarian,0.399 µM
same,TGI,OVCAR-8 ovarian,> 100 µM
same,GI50,A498 renal,0.18 µM
same,TGI,A498 renal,3.01 µM
same,GI50,SK-MEL-28 melanoma,0.517 µM
same,TGI,SK-MEL-28 melanoma,4.39 µM
same,GI50,DU-145 prostate,0.902 µM
same,TGI,DU-145 prostate,4.22 µM
same,GI50,UACC-62 melanoma,0.207 µM
same,TGI,UACC-62 melanoma,2.62 µM
same,GI50,SK-OV-3 ovarian,1.68 µM
same,TGI,SK-OV-3 ovarian,4.84 µM
same,GI50,SNB-75 CNS,1.83 µM
same,TGI,SNB-75 CNS,7.24 µM
same,GI50,CCRF-CEM leukemia,0.331 µM
same,TGI,CCRF-CEM leukemia,> 100 µM
same,GI50,HS 578T breast,0.681 µM
same,TGI,HS 578T breast,7.5 µM
same,GI50,SN12C renal,0.375 µM
same,TGI,SN12C renal,8.95 µM
same,GI50,MALME-3M melanoma,1.17 µM
same,TGI,MALME-3M melanoma,5.16 µM
same,GI50,HCT-116 colon,0.116 µM
same,TGI,HCT-116 colon,1.41 µM
same,GI50,HCT-15 colon,1.52 µM
same,TGI,HCT-15 colon,17.8 µM
same,GI50,SF-539 CNS,0.202 µM
same,TGI,SF-539 CNS,0.909 µM
same,GI50,CAKI-1 renal,0.816 µM
same,TGI,CAKI-1 renal,3.51 µM
same,GI50,EKVX NSCLC,0.671 µM
same,TGI,EKVX NSCLC,7.82 µM
same,GI50,NCI-H23 lung,0.276 µM
same,TGI,NCI-H23 lung,3.25 µM
same,GI50,NCI-H460 lung,0.224 µM
same,TGI,NCI-H460 lung,1.82 µM
same,GI50,HL-60(TB) leukemia,0.125 µM
same,GI50,OVCAR-5 ovarian,0.829 µM
same,TGI,OVCAR-5 ovarian,6.19 µM
same,GI50,UO-31 renal,0.405 µM
same,TGI,UO-31 renal,3.27 µM
same,GI50,ACHN renal,0.584 µM
same,TGI,ACHN renal,2.15 µM
same,GI50,SK-MEL-2 melanoma,3.03 µM
same,TGI,SK-MEL-2 melanoma,> 100 µM
same,GI50,PC-3 prostate,0.855 µM
same,TGI,PC-3 prostate,7.58 µM
same,GI50,SF-268 CNS,0.486 µM
same,TGI,SF-268 CNS,8.63 µM
same,GI50,SR leukemia,0.168 µM
same,TGI,SR leukemia,> 100 µM
same,GI50,MOLT-4 leukemia,0.4 µM
same,TGI,MOLT-4 leukemia,> 100 µM
same,GI50,UACC-257 melanoma,1.54 µM
same,TGI,UACC-257 melanoma,6.59 µM
same,GI50,TK-10 renal,0.814 µM
same,TGI,TK-10 renal,6.54 µM
same,GI50,MDA-MB-435,0.0875 µM
same,TGI,MDA-MB-435,0.523 µM
same,GI50,KM12 colon,0.182 µM
same,TGI,KM12 colon,1.34 µM
same,GI50,A549 NSCLC,0.564 µM
same,TGI,A549 NSCLC,13.6 µM
same,GI50,M14 melanoma,0.167 µM
same,TGI,M14 melanoma,1.11 µM
same,GI50,NCI-H226 lung,1.24 µM
same,TGI,NCI-H226 lung,3.17 µM
same,GI50,SF-295 CNS,0.0827 µM
same,TGI,SF-295 CNS,1.44 µM
same,GI50,HOP-92 NSCLC,0.0995 µM
same,TGI,HOP-92 NSCLC,4.48 µM
same,GI50,IGROV1 ovarian,0.413 µM
same,TGI,IGROV1 ovarian,2.38 µM
O=C(Nc1ccc(F)cc1)c1ccc(NC2=C(Cl)C(=O)N(Cc3ccccc3)C2=O)cc1,GI50,MDA-MB-231 breast,17.2 µM
same,TGI,MDA-MB-231 breast,38 µM
same,GI50,NCI/ADR-RES ovarian,53.3 µM
same,TGI,NCI/ADR-RES ovarian,> 100 µM
same,GI50,BT-549 breast,3.14 µM
same,TGI,BT-549 breast,10.8 µM
same,GI50,COLO 205 colon,22.1 µM
same,TGI,COLO 205 colon,> 100 µM
same,GI50,OVCAR-3 ovarian,3.59 µM
same,TGI,OVCAR-3 ovarian,15.3 µM
same,GI50,HT29 colon,13.1 µM
same,TGI,HT29 colon,> 100 µM
same,GI50,NCI-H522 lung,7.27 µM
same,TGI,NCI-H522 lung,28.8 µM
same,GI50,T-47D breast,5.69 µM
same,TGI,T-47D breast,> 100 µM
same,GI50,SNB-19 CNS,10.8 µM
same,TGI,SNB-19 CNS,41.3 µM
same,GI50,SK-MEL-5 melanoma,18.5 µM
same,TGI,SK-MEL-5 melanoma,63.7 µM
same,GI50,786-0 renal,10.5 µM
same,TGI,786-0 renal,22.9 µM
same,GI50,MCF7 breast,6.24 µM
same,TGI,MCF7 breast,> 100 µM
same,GI50,HCC-2998 colon,11 µM
same,TGI,HCC-2998 colon,> 100 µM
same,GI50,SW-620 colon,4.54 µM
same,TGI,SW-620 colon,> 100 µM
same,GI50,K-562 leukemia,3.79 µM
same,TGI,K-562 leukemia,13.7 µM
same,GI50,RXF 393 renal,12.2 µM
same,TGI,RXF 393 renal,32.2 µM
same,GI50,OVCAR-4 ovarian,16.5 µM
same,TGI,OVCAR-4 ovarian,39.6 µM
same,GI50,U251 CNS,11 µM
same,TGI,U251 CNS,24.1 µM
same,GI50,OVCAR-8 ovarian,4.66 µM
same,TGI,OVCAR-8 ovarian,30.9 µM
same,GI50,A498 renal,13.6 µM
same,TGI,A498 renal,31.9 µM
same,GI50,SK-MEL-28 melanoma,16.5 µM
same,TGI,SK-MEL-28 melanoma,39.5 µM
same,GI50,LOX IMVI melanoma,11.3 µM
same,TGI,LOX IMVI melanoma,25.2 µM
same,GI50,DU-145 prostate,6.48 µM
same,TGI,DU-145 prostate,29.8 µM
same,GI50,UACC-62 melanoma,18.1 µM
same,TGI,UACC-62 melanoma,38.5 µM
same,GI50,SK-OV-3 ovarian,24 µM
same,TGI,SK-OV-3 ovarian,68 µM
same,GI50,SNB-75 CNS,15.9 µM
same,TGI,SNB-75 CNS,37.4 µM
same,GI50,HS 578T breast,13.2 µM
same,TGI,HS 578T breast,62.3 µM
same,GI50,SN12C renal,4.12 µM
same,TGI,SN12C renal,16.4 µM
same,GI50,HCT-116 colon,2.23 µM
same,TGI,HCT-116 colon,4.82 µM
same,GI50,HCT-15 colon,13.3 µM
same,TGI,HCT-15 colon,49.4 µM
same,GI50,SF-539 CNS,11.2 µM
same,TGI,SF-539 CNS,26.7 µM
same,GI50,CAKI-1 renal,1.78 µM
same,TGI,CAKI-1 renal,3.36 µM
same,GI50,EKVX NSCLC,27 µM
same,TGI,EKVX NSCLC,87 µM
same,GI50,NCI-H23 lung,31.5 µM
same,TGI,NCI-H23 lung,84.4 µM
same,GI50,RPMI-8226 leukemia,3.43 µM
same,TGI,RPMI-8226 leukemia,12.3 µM
same,GI50,NCI-H460 lung,7.32 µM
same,TGI,NCI-H460 lung,> 100 µM
same,GI50,HL-60(TB) leukemia,2.31 µM
same,TGI,HL-60(TB) leukemia,7.35 µM
same,GI50,OVCAR-5 ovarian,9.15 µM
same,TGI,OVCAR-5 ovarian,27.1 µM
same,GI50,UO-31 renal,10.5 µM
same,TGI,UO-31 renal,23.4 µM
same,GI50,ACHN renal,14.3 µM
same,TGI,ACHN renal,27.8 µM
same,GI50,SK-MEL-2 melanoma,5.34 µM
same,TGI,SK-MEL-2 melanoma,19.3 µM
same,GI50,PC-3 prostate,7.42 µM
same,TGI,PC-3 prostate,22.3 µM
same,GI50,SF-268 CNS,4.4 µM
same,TGI,SF-268 CNS,23.6 µM
same,GI50,SR leukemia,0.848 µM
same,TGI,SR leukemia,2.54 µM
same,GI50,MOLT-4 leukemia,3.79 µM
same,TGI,MOLT-4 leukemia,21 µM
same,GI50,UACC-257 melanoma,19.8 µM
same,TGI,UACC-257 melanoma,56 µM
same,GI50,MDA-MB-435,7.07 µM
same,TGI,MDA-MB-435,26.3 µM
same,GI50,KM12 colon,15.9 µM
same,TGI,KM12 colon,38 µM
same,GI50,A549 NSCLC,8.68 µM
same,TGI,A549 NSCLC,39 µM
same,GI50,M14 melanoma,13.4 µM
same,TGI,M14 melanoma,30.3 µM
same,GI50,NCI-H226 lung,13.5 µM
same,TGI,NCI-H226 lung,33.3 µM
same,GI50,SF-295 CNS,4.27 µM
same,TGI,SF-295 CNS,16.6 µM
same,GI50,HOP-92 NSCLC,5.23 µM
same,TGI,HOP-92 NSCLC,19.1 µM
same,GI50,IGROV1 ovarian,1.06 µM
same,TGI,IGROV1 ovarian,3.58 µM
